Reference: ChEMBL document CHEMBL4742393, “Compounds for treatment of hypoproliferative disorders” (2019)
Calls of active or inactive are those of the source. The calls are words filed in the database; no cut-off is given here.

Key:
[1] = Rescue of cell survival defect in RPS19-deficient erythroid progenitor cells isolated from mouse model of DBA assessed as live cell levels at 0.03 uM by 7-AAD dye based FACS analysis (reference value: 31%); assay type: functional
[2] = Rescue of cell survival defect in RPS19-deficient erythroid progenitor cells isolated from mouse model of DBA assessed as c-kit+ progenitor cell levels at 0.03 uM by 7-AAD dye based FACS analysis (reference value: 38%); assay type: functional
Mus musculus = experiment: Induction of rescue of anemia in RPS19-deficient mouse model for DBA assessed as improvement in erythrocytes production at 10 mg/kg, po dosed every 12 hrs for 5 times and measured 48 hrs after last dose; assay type: functional, organism-based; settings: time 108.0 hrs
[3] = system: Erythroid progenitor cell; experiment: Rescue of proliferation of CD34+ erythroid progenitor cells isolated from DBA patient with […] mutation at 200 nM measured at day 14 of culture; assay type: functional, tissue-based; settings: Homo sapiens, time 14.0 day
[4] = system: CD34-positive (myeloid/lymphoid) cell; experiment: Rescue of proliferation of CD34+ erythroid progenitor cells isolated from DBA patient with RPS26 mutation at 200 nM measured at day 14 of culture; assay type: functional, tissue-based; settings: Homo sapiens, time 14.0 day
[5] = system: CD34-positive (myeloid/lymphoid) cell; experiment: Rescue of proliferation of CD34+ erythroid progenitor cells isolated from DBA patient with RPS19 mutation at 200 nM measured at day 14 of culture; assay type: functional, tissue-based; settings: Homo sapiens, time 14.0 day
[6] = system: Erythroid progenitor cell; experiment: Increase in erythroid maturation of erythroid progenitor cells isolated from DBA patient assessed as increase in CD71 and CD235a positive cells level measured at day 8 of culture by flow cytometry; assay type: functional, tissue-based; settings: Homo sapiens
[7] = target: T1, CDK8/CDK19 (Mus musculus) (UniProt Q8R3L8+Q8BWD8); experiment: Inhibition of CDK8/CDK19 assessed as rescue of proliferation of RPS19-deficient mouse erythroid progenitor cells by cell-based phenotypic screening assay; assay type: tissue-based
T1 sequence (Q8BWD8 whole entry, looked up): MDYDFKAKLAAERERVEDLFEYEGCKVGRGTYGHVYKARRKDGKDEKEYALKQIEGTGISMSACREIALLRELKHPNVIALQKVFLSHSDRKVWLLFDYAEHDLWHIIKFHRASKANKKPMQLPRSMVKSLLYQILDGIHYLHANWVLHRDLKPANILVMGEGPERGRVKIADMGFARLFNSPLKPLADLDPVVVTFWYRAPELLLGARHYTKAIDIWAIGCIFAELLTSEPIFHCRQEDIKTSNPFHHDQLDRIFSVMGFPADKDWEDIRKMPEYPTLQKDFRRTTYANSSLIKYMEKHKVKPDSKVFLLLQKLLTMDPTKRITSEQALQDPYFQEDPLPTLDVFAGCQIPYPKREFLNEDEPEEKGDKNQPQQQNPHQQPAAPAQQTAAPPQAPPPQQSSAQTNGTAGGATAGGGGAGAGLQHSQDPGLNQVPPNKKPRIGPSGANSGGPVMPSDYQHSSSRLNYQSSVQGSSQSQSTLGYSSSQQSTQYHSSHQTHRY
T1 sequence (Q8R3L8 whole entry, looked up): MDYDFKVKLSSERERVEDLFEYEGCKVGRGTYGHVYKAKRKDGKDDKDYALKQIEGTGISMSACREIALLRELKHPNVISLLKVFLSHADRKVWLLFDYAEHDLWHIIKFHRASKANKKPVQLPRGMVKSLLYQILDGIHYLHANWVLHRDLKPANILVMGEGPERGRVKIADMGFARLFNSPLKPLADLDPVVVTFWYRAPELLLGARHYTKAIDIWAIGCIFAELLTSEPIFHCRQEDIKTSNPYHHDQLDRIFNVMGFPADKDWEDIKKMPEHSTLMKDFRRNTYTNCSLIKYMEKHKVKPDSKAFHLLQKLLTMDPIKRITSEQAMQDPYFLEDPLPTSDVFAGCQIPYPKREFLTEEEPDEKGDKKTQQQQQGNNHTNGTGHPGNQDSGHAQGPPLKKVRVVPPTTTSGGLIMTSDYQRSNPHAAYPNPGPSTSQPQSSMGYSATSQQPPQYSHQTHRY

[8] = Rescue of cell survival defect in RPS19-deficient erythroid progenitor cells isolated from mouse model of DBA assessed as live cell levels at 5 uM by 7-AAD dye based FACS analysis (reference value: 31%); assay type: functional
[9] = Rescue of cell survival defect in RPS19-deficient erythroid progenitor cells isolated from mouse model of DBA assessed as c-kit+ progenitor cell levels at 5 uM by 7-AAD dye based FACS analysis (reference value: 38%); assay type: functional
[10] = target: T1, CDK8/CDK19 (Mus musculus); experiment: Inhibition of CDK8/CDK19 assessed as rescue of proliferation of RPS19-deficient erythroid progenitor cells isolated from mouse model of DBA by cell-based phenotypic screening assay relative to control; assay type: tissue-based
[11] = target: Cyclin-dependent kinase 19 (Homo sapiens) (UniProt Q9BWU1); experiment: Inhibition of CDK19(CDK11) (unknown origin) assessed as residual ligand binding level at 10000 nM relative to control
Chain of Cyclin-dependent kinase 19 (Homo sapiens) (Q9BWU1 whole entry, canonical isoform): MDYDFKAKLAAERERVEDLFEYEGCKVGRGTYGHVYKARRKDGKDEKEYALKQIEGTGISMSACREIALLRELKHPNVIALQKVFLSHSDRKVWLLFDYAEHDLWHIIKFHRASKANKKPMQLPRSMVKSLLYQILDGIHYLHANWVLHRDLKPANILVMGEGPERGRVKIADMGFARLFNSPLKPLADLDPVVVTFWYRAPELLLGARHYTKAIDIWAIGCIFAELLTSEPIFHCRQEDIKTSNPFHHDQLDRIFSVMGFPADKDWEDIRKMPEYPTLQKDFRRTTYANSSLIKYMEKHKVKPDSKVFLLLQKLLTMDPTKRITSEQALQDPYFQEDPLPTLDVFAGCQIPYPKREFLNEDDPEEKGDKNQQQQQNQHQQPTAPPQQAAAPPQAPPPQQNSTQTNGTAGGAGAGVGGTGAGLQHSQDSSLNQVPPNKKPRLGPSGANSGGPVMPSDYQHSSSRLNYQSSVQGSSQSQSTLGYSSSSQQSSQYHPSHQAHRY

[12] = target: Casein kinase I isoform alpha (Homo sapiens) (UniProt P48729); experiment: Inhibition of CSNK1A1 (unknown origin) assessed as residual ligand binding level at 10000 nM relative to control
Chain of Casein kinase I isoform alpha (Homo sapiens) (P48729 2-337 limits assumed): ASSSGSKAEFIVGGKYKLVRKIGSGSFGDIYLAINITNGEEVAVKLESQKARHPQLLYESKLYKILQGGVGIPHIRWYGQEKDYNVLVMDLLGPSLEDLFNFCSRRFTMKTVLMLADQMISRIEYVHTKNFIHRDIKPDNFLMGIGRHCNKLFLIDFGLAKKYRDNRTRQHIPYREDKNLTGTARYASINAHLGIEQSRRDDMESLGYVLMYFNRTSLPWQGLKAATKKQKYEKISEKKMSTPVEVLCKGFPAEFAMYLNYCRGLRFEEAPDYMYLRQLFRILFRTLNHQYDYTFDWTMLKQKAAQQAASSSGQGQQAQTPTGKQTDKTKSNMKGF

[13] = target: Casein kinase I isoform alpha-like (Homo sapiens) (UniProt Q8N752); experiment: Inhibition of CSNK1A1L (unknown origin) assessed as residual ligand binding level at 10000 nM relative to control
[14] = target: Casein kinase I isoform delta (Homo sapiens) (UniProt P48730); experiment: Inhibition of CSNK1D (unknown origin) assessed as residual ligand binding level at 10000 nM relative to control
Chain of Casein kinase I isoform delta (Homo sapiens) (P48730 whole entry, looked up, canonical isoform): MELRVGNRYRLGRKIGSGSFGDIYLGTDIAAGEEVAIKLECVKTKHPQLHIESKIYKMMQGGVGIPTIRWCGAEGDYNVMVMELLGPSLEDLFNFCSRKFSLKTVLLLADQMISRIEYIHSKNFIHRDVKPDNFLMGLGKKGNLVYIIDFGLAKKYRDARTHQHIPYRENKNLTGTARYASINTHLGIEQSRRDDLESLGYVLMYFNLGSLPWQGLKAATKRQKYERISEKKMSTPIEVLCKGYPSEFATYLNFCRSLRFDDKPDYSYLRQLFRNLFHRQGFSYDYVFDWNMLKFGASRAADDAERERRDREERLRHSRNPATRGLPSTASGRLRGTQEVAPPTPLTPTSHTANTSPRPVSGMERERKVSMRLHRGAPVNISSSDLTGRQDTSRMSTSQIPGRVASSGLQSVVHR

[15] = target: Casein kinase I isoform epsilon (Homo sapiens) (UniProt P49674); experiment: Inhibition of CSNK1E (unknown origin) assessed as residual ligand binding level at 10000 nM relative to control
[16] = target: Casein kinase I isoform gamma-1 (Homo sapiens) (UniProt Q9HCP0); experiment: Inhibition of CSNK1G1 (unknown origin) assessed as residual ligand binding level at 10000 nM relative to control
[17] = target: Casein kinase I isoform gamma-2 (Homo sapiens) (UniProt P78368); experiment: Inhibition of CSNK1G2 (unknown origin) assessed as residual ligand binding level at 10000 nM relative to control
Chain of Casein kinase I isoform gamma-2 (Homo sapiens) (P78368 whole entry, looked up, canonical isoform): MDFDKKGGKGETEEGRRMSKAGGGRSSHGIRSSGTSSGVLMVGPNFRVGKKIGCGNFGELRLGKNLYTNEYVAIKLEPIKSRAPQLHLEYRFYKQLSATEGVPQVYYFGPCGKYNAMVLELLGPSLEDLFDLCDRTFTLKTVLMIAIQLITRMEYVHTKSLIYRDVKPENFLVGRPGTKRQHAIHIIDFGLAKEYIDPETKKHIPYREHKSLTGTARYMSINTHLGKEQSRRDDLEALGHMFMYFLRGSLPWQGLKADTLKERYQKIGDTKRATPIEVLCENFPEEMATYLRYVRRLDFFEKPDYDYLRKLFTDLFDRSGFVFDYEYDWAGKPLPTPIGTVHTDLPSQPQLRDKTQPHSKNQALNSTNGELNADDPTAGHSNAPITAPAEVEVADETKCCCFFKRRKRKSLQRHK

[18] = target: Casein kinase I isoform gamma-3 (Homo sapiens) (UniProt Q9Y6M4); experiment: Inhibition of CSNK1G3 (unknown origin) assessed as residual ligand binding level at 10000 nM relative to control
[19] = target: Death-associated protein kinase 1 (Homo sapiens) (UniProt P53355); experiment: Inhibition of DAPK1 (unknown origin) assessed as residual ligand binding level at 10000 nM relative to control
Chain of Death-associated protein kinase 1 (Homo sapiens) (P53355 whole entry, looked up): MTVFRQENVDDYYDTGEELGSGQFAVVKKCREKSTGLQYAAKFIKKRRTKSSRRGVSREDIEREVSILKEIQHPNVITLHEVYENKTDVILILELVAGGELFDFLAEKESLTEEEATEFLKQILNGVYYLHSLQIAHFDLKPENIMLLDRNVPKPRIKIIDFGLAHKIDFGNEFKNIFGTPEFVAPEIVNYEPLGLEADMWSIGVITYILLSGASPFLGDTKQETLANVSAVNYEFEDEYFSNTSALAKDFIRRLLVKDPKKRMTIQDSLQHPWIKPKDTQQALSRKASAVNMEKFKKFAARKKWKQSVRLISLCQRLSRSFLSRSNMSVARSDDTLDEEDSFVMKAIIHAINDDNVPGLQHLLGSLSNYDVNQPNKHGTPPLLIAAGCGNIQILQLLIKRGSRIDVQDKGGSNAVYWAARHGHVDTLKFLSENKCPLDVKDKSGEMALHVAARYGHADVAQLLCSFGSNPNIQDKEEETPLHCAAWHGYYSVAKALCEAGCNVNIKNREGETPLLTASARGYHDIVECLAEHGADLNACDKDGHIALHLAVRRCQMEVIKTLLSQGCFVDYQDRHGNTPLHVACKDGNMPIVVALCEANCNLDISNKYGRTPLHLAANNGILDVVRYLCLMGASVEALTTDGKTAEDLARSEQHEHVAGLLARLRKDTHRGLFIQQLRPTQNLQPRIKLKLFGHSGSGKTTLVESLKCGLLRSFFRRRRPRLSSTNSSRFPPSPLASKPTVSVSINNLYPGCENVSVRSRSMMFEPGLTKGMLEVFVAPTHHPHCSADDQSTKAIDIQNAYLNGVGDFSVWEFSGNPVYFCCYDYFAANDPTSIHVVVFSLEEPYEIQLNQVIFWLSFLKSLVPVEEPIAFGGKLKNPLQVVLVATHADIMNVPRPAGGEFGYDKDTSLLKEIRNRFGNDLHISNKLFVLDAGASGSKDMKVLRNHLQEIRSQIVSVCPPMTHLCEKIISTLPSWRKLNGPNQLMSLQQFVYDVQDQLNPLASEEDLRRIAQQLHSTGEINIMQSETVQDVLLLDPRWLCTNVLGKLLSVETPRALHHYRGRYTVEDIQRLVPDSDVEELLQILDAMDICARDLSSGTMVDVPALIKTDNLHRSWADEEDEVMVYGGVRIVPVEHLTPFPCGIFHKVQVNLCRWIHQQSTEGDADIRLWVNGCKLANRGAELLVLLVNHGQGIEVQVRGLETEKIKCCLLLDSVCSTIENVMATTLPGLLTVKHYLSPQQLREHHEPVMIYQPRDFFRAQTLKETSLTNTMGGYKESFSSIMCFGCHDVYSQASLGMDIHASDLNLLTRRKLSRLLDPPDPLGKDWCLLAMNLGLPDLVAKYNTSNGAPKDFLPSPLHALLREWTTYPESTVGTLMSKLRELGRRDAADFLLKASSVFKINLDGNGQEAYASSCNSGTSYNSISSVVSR

[20] = target: Dual specificity tyrosine-phosphorylation-regulated kinase 1A (Homo sapiens) (UniProt Q13627); experiment: Inhibition of DYRK1A (unknown origin) assessed as residual ligand binding level at 10000 nM relative to control
[21] = target: Dual specificity tyrosine-phosphorylation-regulated kinase 1B (Homo sapiens) (UniProt Q9Y463); experiment: Inhibition of DYRK1B (unknown origin) assessed as residual ligand binding level at 10000 nM relative to control
[22] = target: Dual specificity tyrosine-phosphorylation-regulated kinase 2 (Homo sapiens) (UniProt Q92630); experiment: Inhibition of DYRK2 (unknown origin) assessed as residual ligand binding level at 10000 nM relative to control
Homo sapiens = species on record: Homo sapiens; experiment: Inhibition of GCN2 kinase domain 2 […] mutant (unknown origin) assessed as residual ligand binding level at 10000 nM relative to control
[23] = target: Homeodomain-interacting protein kinase 1 (Homo sapiens) (UniProt Q86Z02); experiment: Inhibition of HIPK1 (unknown origin) assessed as residual ligand binding level at 10000 nM relative to control
[24] = target: Mitogen-activated protein kinase 14 (Homo sapiens) (UniProt Q16539); experiment: Inhibition of p38-alpha (unknown origin) assessed as residual ligand binding level at 10000 nM relative to control
[25] = target: Serine/threonine-protein kinase pim-1 (Homo sapiens) (UniProt P11309); experiment: Inhibition of PIM1 (unknown origin) assessed as residual ligand binding level at 10000 nM relative to control
Chain of Serine/threonine-protein kinase pim-1 (Homo sapiens) (P11309 whole entry, looked up, the tested form may be a part): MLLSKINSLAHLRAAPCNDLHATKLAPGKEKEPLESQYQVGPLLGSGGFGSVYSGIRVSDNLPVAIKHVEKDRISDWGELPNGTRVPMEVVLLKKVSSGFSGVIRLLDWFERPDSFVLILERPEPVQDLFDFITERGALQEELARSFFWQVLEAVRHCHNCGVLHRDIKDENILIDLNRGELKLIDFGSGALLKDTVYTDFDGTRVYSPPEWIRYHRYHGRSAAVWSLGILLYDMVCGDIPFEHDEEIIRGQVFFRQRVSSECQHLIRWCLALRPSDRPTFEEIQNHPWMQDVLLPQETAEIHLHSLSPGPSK

[26] = target: Ribosomal protein S6 kinase alpha-6 (Homo sapiens) (UniProt Q9UK32); experiment: Inhibition of RSK4 c-terminal kinase domain (unknown origin) assessed as residual ligand binding level at 10000 nM relative to control
[27] = target: TGF-beta receptor type-1 (Homo sapiens) (UniProt P36897); experiment: Inhibition of TGFBR1 (unknown origin) assessed as residual ligand binding level at 10000 nM relative to control
Chain of TGF-beta receptor type-1 (Homo sapiens) (P36897 whole entry): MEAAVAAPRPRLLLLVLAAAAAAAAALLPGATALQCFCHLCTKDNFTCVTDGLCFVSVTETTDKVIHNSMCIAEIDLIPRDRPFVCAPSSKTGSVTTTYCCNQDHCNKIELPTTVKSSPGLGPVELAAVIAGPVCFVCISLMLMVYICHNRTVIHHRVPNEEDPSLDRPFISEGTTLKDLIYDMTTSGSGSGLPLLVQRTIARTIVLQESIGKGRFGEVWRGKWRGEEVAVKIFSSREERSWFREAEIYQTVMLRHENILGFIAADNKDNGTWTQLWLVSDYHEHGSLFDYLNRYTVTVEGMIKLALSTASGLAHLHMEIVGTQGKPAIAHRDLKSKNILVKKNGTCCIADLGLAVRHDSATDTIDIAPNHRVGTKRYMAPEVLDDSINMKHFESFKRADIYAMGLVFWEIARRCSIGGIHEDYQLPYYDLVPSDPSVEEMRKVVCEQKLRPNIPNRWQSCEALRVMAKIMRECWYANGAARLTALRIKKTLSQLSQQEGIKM

Question: For CN(C)C(=O)Cc1ccc(N2CCCN(c3ccnc4sc(C(N)=O)c(N)c34)CC2)cc1, which Activity [1] is on record?
Answer: Its Activity is 70%.

Question: And the Activity [2]?
Answer: The Activity was 63%.

Question: And the Activity (Mus musculus)?
Answer: The Activity was “Active”.

Question: And the Activity [3]?
Answer: Its Activity is “Active”.

Question: What about the Activity [4] of the same compound?
Answer: The Activity was “Active”.

Question: What about the Activity [5] of the same compound?
Answer: The Activity was “Active”.

Question: And the Activity [6]?
Answer: The Activity was “Active”.

Question: And the inhibition [7]?
Answer: Its inhibition is “Dose-dependent effect”.

Question: Which results are given for N#Cc1ccc2ncnc(NCCc3ccccc3)c2c1?
Answer: Activity [8]: 77%; Activity [9]: 65%; Activity (Mus musculus): Active

Question: Which Activity (Mus musculus) does the source give for CN(C)c1ccnc2sc(C(N)=O)c(N)c12 here?
Answer: The Activity was “Active”.

Question: And the inhibition [7]?
Answer: The inhibition was “Dose-dependent effect”.

Question: For Cc1c(C(N)=O)sc2nc(C(F)(F)F)cc(N)c12, which Activity (Mus musculus) is on record?
Answer: Its Activity is “Active”.

Question: Which Activity (Mus musculus) does the source give for NC(=O)c1sc2nccc(N3CCCN(c4ccccc4)CC3)c2c1N here?
Answer: The Activity was “Active”.

Question: And the inhibition [7]?
Answer: The inhibition was “Dose-dependent effect”.

Question: Which Activity (Mus musculus) does the source give for Cn1ncc2cc(-c3cnc(N)c(Cl)c3N3CCC4(CCNC4=O)CC3)ccc21 here?
Answer: The Activity was “Active”.

Question: And the ECmax [10]?
Answer: Its ECmax is “inactive”.

Question: What does the source list for Cc1c(Br)c(Br)c2c3c1nc(N1CCNCC1)n3CCC2?
Answer: Activity (Mus musculus): Active; Activity [3]: Active; Activity [4]: Active; Activity [5]: Active; Activity [6]: Active

Question: Which Activity (Mus musculus) does the source give for CCc1nc2sc(C(N)=O)c(N)c2c2c1CCCC2 here?
Answer: Its Activity is “Active”.

Question: For Cn1cc(-c2ccc(-c3cncc(Cl)c3N3CCC4(CCNC4=O)CC3)cc2)cn1, which Activity (Mus musculus) is on record?
Answer: The Activity was “Active”.

Question: For COc1ccc(-c2cc(C3CC3)nc3sc(C(N)=O)c(N)c23)cc1, which Activity (Mus musculus) is on record?
Answer: The Activity was “Active”.

Question: What does the source list for CN1CCN(C(=O)c2ccc3cc(CCNc4ncnc5ccc(C#N)cc45)ccc3c2)CC1?
Answer: Activity (Mus musculus): Active; Activity [3]: Active; Activity [4]: Active; Activity [5]: Active; Activity [6]: Active

Question: For COCc1cc(C)nc2sc(C(N)=O)c(N)c12, which Activity [11] is on record?
Answer: The Activity was 0%.

Question: What about the Activity [12] of the same compound?
Answer: The Activity was 11%.

Question: And the Activity [13]?
Answer: Its Activity is 25%.

Question: What about the Activity [14] of the same compound?
Answer: The Activity was 10%.

Question: And the Activity [15]?
Answer: The Activity was 14%.

Question: What about the Activity [16] of the same compound?
Answer: The Activity was 84%.

Question: What about the Activity [17] of the same compound?
Answer: Its Activity is 73%.

Question: And the Activity [18]?
Answer: Its Activity is 67%.

Question: What about the Activity [19] of the same compound?
Answer: Its Activity is 84%.

Question: And the Activity [20]?
Answer: The Activity was 50%.

Question: What about the Activity [21] of the same compound?
Answer: The Activity was 41%.

Question: And the Activity [22]?
Answer: Its Activity is 46%.

Question: And the Activity (Homo sapiens)?
Answer: Its Activity is 94%.

Question: And the Activity [23]?
Answer: The Activity was 61%.

Question: What about the Activity [24] of the same compound?
Answer: Its Activity is 88%.

Question: And the Activity [25]?
Answer: Its Activity is 87%.

Question: And the Activity [26]?
Answer: The Activity was 72%.

Question: What about the Activity [27] of the same compound?
Answer: The Activity was 95%.

Question: What about the Activity (Mus musculus) of the same compound?
Answer: Its Activity is “Active”.
